Columns and labels:
[1] = test system: IL-17A; assay: Real-time qRT-PCR in TH17 cells: IL-17A gene expression; assay type: cell-based, human; design: key: A: No change in gene expression observed relative to DMSO treated Th17 cells; B: Decreased gene expression observed relative to DMSO treated Th17 cells; C: Increased gene expression observed relative to DMSO treated Th17 cells
Method: (§1) Peripheral blood mononuclear cells (PBMCs) were sourced from freshly prepared leukocyte enriched plasma (buffy coat) from healthy volunteers from which PBMCs were isolated by density gradient centrifugation using Ficoll-Paque™ PLUS (GE Healthcare). Naïve CD4+ T cells were isolated using the Naïve CD4+ T cell Isolation Kit II (Miltenyi Biotec) as per manufacturer's instructions. CD4+ T cells were plated at 5×10^4 cells/well in 96 well plates pre-coated with immobilized human (h)-αCD3 antibody (eBioscience) then differentiated to TH17 cells using h-αCD28, h-αIFNγ, h-αIL4, h-IL6, h-IL23, h-IL1β, h-TGFβ1 (eBioscience) and maintained in a cell culture incubator at 37° C. with 5% CO2 in TexMACS Medium (Miltenyi Biotec) supplemented with 1% Penicillin/Streptomycin (Lonza) over 5 days.
(§2) RNA was isolated from TH17 cells and cDNA was synthesized using the Verso cDNA kit (Thermo Scientific) as per manufacturer's instructions. IL-17A, IL-17F, IL-21, IL-22, G-CSF, IL-23R and FOXP3 gene expression were determined for compound treated and untreated TH17 cell samples using Solaris qPCR Gene expression assays (Thermo Scientific) with an iCycler iQ Real-Time PCR Detection System (Bio-Rad). Individual gene expression was normalized to a panel of six reference genes (ACTB, TBP, HPRT1, PGK1, TFRC and PPIA) (Thermo Scientific) and analyzed by REST 2009 (Qiagen) in accordance to MIQE guidelines (Bustin et al. (2009) Clin. Chem, 55:611-622). The effects of compounds on TH17 cytokine mRNA levels are presented as fold change in gene expression of compound treated TH17 cells relative to DMSO treated cells in the table below.

[2] = test system: FOXP3; assay: Real-time qRT-PCR in TH17 cells: FOXP3 gene expression; assay type: cell-based, human; design: key: A: No change in gene expression observed relative to DMSO treated Th17 cells; B: Decreased gene expression observed relative to DMSO treated Th17 cells; C: Increased gene expression observed relative to DMSO treated Th17 cells
Method: as §1, §2

[3] = test system: IL-17F; assay: TH17 cytokine inhibition as measured by ELISA: IL-17F; assay type: cell-based; conditions: 120 h; human TH17 cells, 5 days differentiation, ELISA of supernatant
Method: as §1
(§3) Human CD4+ T cells were differentiated to TH17 cells as described in the presence or absence of various concentrations of compounds in a final concentration of 0.1% DMSO in TexMACS medium. Supernatants were collected and stored at −20° C. until they were to be assayed for IL-17A, IL-17F, IL-17AF, IL-21 and/or IL-22 levels as determined by Ready-Set-Go ELISA kits (eBioscience) as per manufacturer's instructions. Endpoint absorbance was read at 450 nm and 570 nm according to manufacturer's instructions (eBioscience) using a microplate reader (Perkin Elmer). The percentage of cytokine inhibition was calculated with reference to DMSO treated cells and the IC50s were determined by GraphPad Prism software and presented in the table below.

[4] = test system: IL-21; assay: Real-time qRT-PCR in TH17 cells: IL-21 gene expression; assay type: cell-based, human; design: key: A: No change in gene expression observed relative to DMSO treated Th17 cells; B: Decreased gene expression observed relative to DMSO treated Th17 cells; C: Increased gene expression observed relative to DMSO treated Th17 cells
Method: as §1, §2

[5] = test system: IL-17F; assay: Real-time qRT-PCR in TH17 cells: IL-17F gene expression; assay type: cell-based, human; design: key: A: No change in gene expression observed relative to DMSO treated Th17 cells; B: Decreased gene expression observed relative to DMSO treated Th17 cells; C: Increased gene expression observed relative to DMSO treated Th17 cells
Method: as §1, §2

[6] = test system: IL-22; assay: TH17 cytokine inhibition as measured by ELISA: IL-22; assay type: cell-based; conditions: 120 h; human TH17 cells, 5 days differentiation, ELISA of supernatant
Method: as §1, §3

[7] = molecular target: T1, RORγ LBD (Homo sapiens (Human), UniProt P51449); assay: TR-FRET co-repressor NCoR1-D2 interaction with RORγ LBD; assay type: biochemical
T1 sequence (P51449 269-508): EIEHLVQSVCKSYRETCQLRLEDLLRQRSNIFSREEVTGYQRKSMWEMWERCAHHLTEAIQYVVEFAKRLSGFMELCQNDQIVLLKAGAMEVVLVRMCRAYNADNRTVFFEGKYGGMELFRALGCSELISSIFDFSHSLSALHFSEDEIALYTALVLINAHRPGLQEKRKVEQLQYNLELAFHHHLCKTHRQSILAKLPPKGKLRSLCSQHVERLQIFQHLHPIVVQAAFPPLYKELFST
From the text: (§4) The Time-Resolved Fluorescence Resonance Energy Transfer (TR-FRET) assay kit (Life Technologies) was used to measure compound efficacy to disrupt or enhance ligand-mediated interaction of the co-activator and co-repressor peptides with the purified GST-tagged (i) RORγ LBD or (ii) […]. The RORγ LBD and RORα LBD each have a basal level of interaction with the co-activator D22 or co-repressor NCoR1-D2 in the absence of ligand, thus it is possible to identify compounds that inhibit or induce RORγ and/or RORα co-activator/co-repressor interactions, thus determining RORα, RORγ, or RORα/RORγ compound selectivity. The assay was performed as per manufacturer's instructions and TR-FRET was assessed 2 and 20 hours post-assay initiation. Compounds were identified to (i) have no impact on either co-activator displacement or […] from the assessed LBD (ii) promote co-activator displacement from the assessed LBD (iii) promote co-repressor recruitment to the assessed LBD or (iv) concurrently promote co-activator displacement from the assessed LBD and co-repressor recruitment to the assessed LBD.

[8] = test system: IL-22; assay: Real-time qRT-PCR in TH17 cells: IL-22 gene expression; assay type: cell-based, human; design: key: A: No change in gene expression observed relative to DMSO treated Th17 cells; B: Decreased gene expression observed relative to DMSO treated Th17 cells; C: Increased gene expression observed relative to DMSO treated Th17 cells
Method: as §1, §2

[9] = test system: IL-17A; assay: TH17 cytokine inhibition as measured by ELISA: IL-17A; assay type: cell-based; conditions: 120 h; human TH17 cells, 5 days differentiation, ELISA of supernatant
Method: as §1, §3

[10] = molecular target: T2, RORα LBD (Homo sapiens (Human), UniProt P35398); assay: TR-FRET co-activator D22 interaction with RORα LBD; assay type: biochemical
T2 sequence (P35398 272-510): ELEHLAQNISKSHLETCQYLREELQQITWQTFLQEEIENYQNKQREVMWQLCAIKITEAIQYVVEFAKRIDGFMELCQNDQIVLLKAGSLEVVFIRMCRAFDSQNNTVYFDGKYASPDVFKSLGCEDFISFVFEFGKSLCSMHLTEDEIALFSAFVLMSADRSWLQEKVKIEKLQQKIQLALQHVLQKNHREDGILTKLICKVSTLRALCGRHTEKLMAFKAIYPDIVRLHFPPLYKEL
From the text: as §4

[11] = molecular target: T1, RORγ LBD; assay: TR-FRET co-activator D22 interaction with RORγ LBD; assay type: biochemical
From the text: as §4

[12] = TH17 cell viability (Prestoblue); assay type: cell-based; design: concentration or dose not given beside the values; conditions: human; percentage of DMSO treated cells; read-out: % viability of compound treated TH17 cells
Method: as §1
Cells were assayed for viability in the presence or absence of compound using Prestoblue® Cell Viability Reagent (Life Technologies) as per manufacturer's instructions after 30 minutes incubation of TH17 cells with reagent. Absorbance was measured at 570 nm and 600 nm using a microplate reader (Perkin Elmer) and data were analyzed as per manufacturer's instructions. Cell viability was expressed as a percentage of DMSO treated cells.

[13] = test system: IL-23R; assay: Real-time qRT-PCR in TH17 cells: IL-23R gene expression; assay type: cell-based, human; design: key: A: No change in gene expression observed relative to DMSO treated Th17 cells; B: Decreased gene expression observed relative to DMSO treated Th17 cells; C: Increased gene expression observed relative to DMSO treated Th17 cells
Method: as §1, §2

[14] = molecular target: T2, RORα LBD; assay: TR-FRET co-repressor NCoR1-D2 interaction with RORα LBD; assay type: biochemical
From the text: as §4

[15] = test system: TH17 cells; assay: TH17 cellular proliferation (Prestoblue); assay type: cell-based; conditions: Homo sapiens, 120 h; 3 μM compound, after 5 day TH17 differentiation, relative to DMSO treated TH17 cells; read-out: % change in TH17 cell number
Method: as §1
Cellular proliferation was assessed in the presence or absence of 3 μM compound using Prestoblue® Cell Viability Reagent (Life Technologies) as per manufacturer's instructions using absorbance as the output measured by a microplate reader (Perkin Elmer) after 30 minutes of incubation of cells and reagent. A standard curve developed by plotting varying cell numbers versus absorbance was used to assess differences in cellular proliferation between compound treated or untreated cells after the 5 day TH17 differentiation period.

[16] = test system: IL-17AF; assay: TH17 cytokine inhibition as measured by ELISA: IL-17AF; assay type: cell-based; conditions: 120 h; human TH17 cells, 5 days differentiation, ELISA of supernatant
Method: as §1, §3

[17] = molecular target: T1, RORγ LBD; assay: RORγ LBD binding (Human RORγ Assay System, INDIGO Biosciences); conditions: 0.5% DMSO
Method: Compound binding to the human RORγ LBD was assessed using the Human RORγ Assay System (INDIGO Biosciences Inc.) as per manufacturer's instructions.

[18] = 2 hr, read-out: RORγ EC50 NCoR1-D2 co-repressor recruitment 2 hr
[19] = 20 hr, read-out: RORγ EC50 NCoR1-D2 co-repressor recruitment 20 hr
[20] = 2 hr, read-out: RORα EC50 D22 co-activator displacement 2 hr
[21] = 20 hr, read-out: RORα EC50 D22 co-activator displacement 20 hr
[22] = 2 hr, read-out: RORγ EC50 D22 co-activator displacement 2 hr
[23] = 20 hr, read-out: RORγ EC50 D22 co-activator displacement 20 hr
[24] = 2 hr, read-out: RORα EC50 NCoR1-D2 co-repressor recruitment 2 hr
[25] = 20 hr, read-out: RORα EC50 NCoR1-D2 co-repressor recruitment 20 hr

CS(=O)(=O)Nc1ccc2c(c1)CCC(=O)N2Cc1ccc(C(O)(C(F)(F)F)C(F)(F)F)cc1 [Example 6, N-(1-(4-(1,1,1,3,3,3-hexafluoro-2-hydroxypropan-2-yl)benzyl)-2-oxo-1,2,3,4-tetrahydroquinolin-6-yl)methanesulfonamide]
Fold change in mRNA level of compound treated TH17 cells relative to DMSO treated cells IL-17A [1]: A | Fold change in mRNA level of compound treated TH17 cells relative to DMSO treated cells FOXP3 [2]: A | IC50 [3]: < 10 µM | Fold change in mRNA level of compound treated TH17 cells relative to DMSO treated cells IL-21 [4]: A | Fold change in mRNA level of compound treated TH17 cells relative to DMSO treated cells IL-17F [5]: B | IC50 [6]: < 10 µM | EC50 [7, 18]: < 30 µM | EC50 [7, 19]: > 30 µM | Fold change in mRNA level of compound treated TH17 cells relative to DMSO treated cells IL-22 [8]: A | IC50 [9]: < 10 µM | EC50 [10, 20]: < 30 µM | EC50 [10, 21]: < 30 µM | EC50 [11, 22]: > 30 µM | EC50 [11, 23]: > 30 µM | viability [12]: > 80% | Fold change in mRNA level of compound treated TH17 cells relative to DMSO treated cells IL-23R [13]: A | EC50 [14, 24]: > 30 µM | EC50 [14, 25]: > 30 µM | inhibition at 3 µM [15]: ≤ 50%

CC(=O)Nc1ccc2c(c1)CCC(=O)N2Cc1ccc(C(O)(C(F)(F)F)C(F)(F)F)cc1 [Example 3, N-(1-(4-(1,1,1,3,3,3-hexafluoro-2-hydroxypropan-2-yl)benzyl)-2-oxo-1,2,3,4-tetrahydroquinolin-6-yl)acetamide]
IC50 [3]: < 10 µM | EC50 [7, 18]: > 30 µM | EC50 [7, 19]: < 30 µM | IC50 [9]: < 10 µM | IC50 [16]: > 10 µM | EC50 [10, 20]: > 30 µM | EC50 [10, 21]: > 30 µM | EC50 [11, 22]: > 30 µM | EC50 [11, 23]: < 30 µM | viability [12]: > 80% | EC50 [14, 24]: > 30 µM | EC50 [14, 25]: > 30 µM | inhibition at 3 µM [15]: ≤ 50% | IC50 [17]: > 10 µM

CNC(=O)c1ccc(CN2CCc3cc(NC(C)=O)ccc32)cc1 [Example 12, 4-((5-acetamidoindolin-1-yl)methyl)-N-methylbenzamide]
IC50 [3]: > 10 µM | IC50 [6]: > 10 µM | EC50 [7, 18]: > 30 µM | EC50 [7, 19]: > 30 µM | IC50 [9]: > 10 µM | EC50 ([10]; 2 hr, co-activator recruitment (π), read-out: RORα EC50 D22 2 hr (demonstrates co-activator recruitment)): < 30 µM | EC50 ([10]; 20 hr, co-activator recruitment (π), read-out: RORα EC50 D22 20 hr (demonstrates co-activator recruitment)): < 30 µM | EC50 ([11]; 2 hr, co-activator recruitment (π), read-out: RORγ EC50 D22 2 hr (demonstrates co-activator recruitment)): < 30 µM | EC50 ([11]; 20 hr, co-activator recruitment (π), read-out: RORγ EC50 D22 20 hr (demonstrates co-activator recruitment)): < 30 µM | viability [12]: > 80% | EC50 [14, 24]: > 30 µM | EC50 ([14]; 20 hr, co-repressor displacement (Ω), read-out: RORα EC50 NCoR1-D2 20 hr (demonstrates co-repressor displacement)): < 30 µM | inhibition at 3 µM [15]: ≤ 50%
